Results published in article PMC8673672, “Synthesis and evaluation of radiogallium-labeled long-chain fatty acid derivatives as myocardial metabolic imaging agents” (PLoS ONE, 2021).

Tests used:
[1] = design: method as in PMID 31869735; conditions: Ga complex; cited from earlier work
[2] = Biodistribution study in normal mice; type: in vivo; conditions: ddY mice, i.v.
Procedure: The animal experimental protocols used were approved by the Committee on Animal Experimentation of Kanazawa University (AP-204165). All experiments with animals were conducted in strict accordance with the Guidelines for the Care and Use of Laboratory Animals of Kanazawa University. Mice were housed together in individually ventilated cages with three mice per cage. The animals were housed at 23°C with a 12 h light/dark schedule with free access to a standardized mouse diet and provided drinking water ad libitum water. Autoclaved wood chips were applied as bedding material. The behavior of the mice during the experimental period was normal. Seventy-five ddY mice (male; 6-week-old; 29–33 g) were purchased from Japan SLC Inc., Hamamatsu, Japan. The mice were randomly divided into five groups (n = 15 mice per group) with five different time points for each group (n = 3 mice per time point).
Radiotracers, [^67Ga]5, [^67Ga]6, [^67Ga]7, or [^67Ga]8, in saline containing 5% ethanol and 0.1% tween-80, or [^123I]BMIPP (74 kBq/100 μL, respectively) was intravenously injected into mice via the tail. The ddY mice were sacrificed by decapitation at 0.5, 2, 5, 20, and 60 min. Tissues of interest were removed and weighed. The radioactivity of the tissues was determined using an auto well gamma counter. The data were expressed as percent injected dose per gram tissue (%ID/g).

O=C([O-])CN1CCN(CC(=O)[O-])CCN(CC(=O)O)CCN(CC(=O)[O-])CC1.[Ga+3] [Ga-DOTA]
Stability constant (log K) [1]: 21.3

CC(CCCCCCCCCCCCc1ccc([123I])cc1)CC(=O)O (stereo not drawn) [[^123I]BMIPP, β-methyl [^123I]iodophenyl-pentadecanoic acid]
Blood radioactivity ([2]; 0.5 min after injection): 20.30 (1.55) %ID/g
Bone radioactivity ([2]; 0.5 min after injection): 2.63 (0.33) %ID/g
Brain radioactivity ([2]; 0.5 min after injection): 0.51 (0.11) %ID/g
Kidney radioactivity ([2]; 0.5 min after injection): 5.21 (0.42) %ID/g
Large intestine radioactivity ([2]; 0.5 min after injection): 0.42 (0.07) %ID/g
Liver radioactivity ([2]; 0.5 min after injection): 12.44 (2.40) %ID/g
Lung radioactivity ([2]; 0.5 min after injection): 24.09 (4.19) %ID/g
Muscle radioactivity ([2]; 0.5 min after injection): 2.85 (0.69) %ID/g
Pancreas radioactivity ([2]; 0.5 min after injection): 2.43 (0.68) %ID/g
Small intestine radioactivity ([2]; 0.5 min after injection): 0.91 (0.15) %ID/g
Spleen radioactivity ([2]; 0.5 min after injection): 4.91 (1.27) %ID/g
Stomach radioactivity ([2]; 0.5 min after injection): 0.60 (0.11) %ID/organ
Heart uptake ([2]; 0.5 min after injection (initial myocardial uptake)): 21.36 (2.73) %ID/g
Blood radioactivity ([2]; 2 min after injection): 6.01 (0.74) %ID/g
Bone radioactivity ([2]; 2 min after injection): 1.97 (0.03) %ID/g
Brain radioactivity ([2]; 2 min after injection): 0.22 (0.03) %ID/g
Heart uptake ([2]; 2 min after injection): 27.60 (3.15) %ID/g
Kidney radioactivity ([2]; 2 min after injection): 5.27 (0.61) %ID/g
Large intestine radioactivity ([2]; 2 min after injection): 0.68 (0.14) %ID/g
Liver radioactivity ([2]; 2 min after injection): 21.35 (0.89) %ID/g
Lung radioactivity ([2]; 2 min after injection): 15.88 (1.94) %ID/g
Muscle radioactivity ([2]; 2 min after injection): 3.24 (0.49) %ID/g
Pancreas radioactivity ([2]; 2 min after injection): 6.11 (1.90) %ID/g
Small intestine radioactivity ([2]; 2 min after injection): 1.33 (0.23) %ID/g
Spleen radioactivity ([2]; 2 min after injection): 3.76 (1.18) %ID/g
Stomach radioactivity ([2]; 2 min after injection): 0.70 (0.17) %ID/organ
Blood radioactivity ([2]; 5 min after injection): 6.75 (1.07) %ID/g
Bone radioactivity ([2]; 5 min after injection): 2.29 (0.27) %ID/g
Brain radioactivity ([2]; 5 min after injection): 0.25 (0.03) %ID/g
Heart uptake ([2]; 5 min after injection): 28.03 (5.37) %ID/g
Kidney radioactivity ([2]; 5 min after injection): 5.93 (1.23) %ID/g
Large intestine radioactivity ([2]; 5 min after injection): 0.66 (0.11) %ID/g
Liver radioactivity ([2]; 5 min after injection): 16.33 (4.41) %ID/g
Lung radioactivity ([2]; 5 min after injection): 16.87 (3.08) %ID/g
Muscle radioactivity ([2]; 5 min after injection): 3.42 (1.06) %ID/g
Pancreas radioactivity ([2]; 5 min after injection): 5.66 (4.30) %ID/g
Small intestine radioactivity ([2]; 5 min after injection): 1.39 (0.27) %ID/g
Spleen radioactivity ([2]; 5 min after injection): 3.09 (1.26) %ID/g
Stomach radioactivity ([2]; 5 min after injection): 0.95 (0.28) %ID/organ
Blood radioactivity ([2]; 20 min after injection): 10.84 (0.20) %ID/g
Bone radioactivity ([2]; 20 min after injection): 2.66 (0.22) %ID/g
Brain radioactivity ([2]; 20 min after injection): 0.43 (0.07) %ID/g
Heart uptake ([2]; 20 min after injection): 23.41 (3.39) %ID/g
Kidney radioactivity ([2]; 20 min after injection): 8.03 (0.09) %ID/g
Large intestine radioactivity ([2]; 20 min after injection): 1.20 (0.04) %ID/g
Liver radioactivity ([2]; 20 min after injection): 6.54 (0.43) %ID/g
Lung radioactivity ([2]; 20 min after injection): 16.21 (1.50) %ID/g
Muscle radioactivity ([2]; 20 min after injection): 3.51 (0.21) %ID/g
Pancreas radioactivity ([2]; 20 min after injection): 9.80 (3.25) %ID/g
Small intestine radioactivity ([2]; 20 min after injection): 1.97 (0.11) %ID/g
Spleen radioactivity ([2]; 20 min after injection): 1.73 (0.55) %ID/g
Stomach radioactivity ([2]; 20 min after injection): 1.06 (0.05) %ID/organ
Blood radioactivity ([2]; 60 min after injection): 10.38 (2.03) %ID/g
Bone radioactivity ([2]; 60 min after injection): 2.42 (0.33) %ID/g
Brain radioactivity ([2]; 60 min after injection): 0.39 (0.04) %ID/g
Heart uptake ([2]; 60 min after injection): 20.92 (3.67) %ID/g
Kidney radioactivity ([2]; 60 min after injection): 6.24 (0.62) %ID/g
Large intestine radioactivity ([2]; 60 min after injection): 1.20 (0.15) %ID/g
Liver radioactivity ([2]; 60 min after injection): 4.34 (0.61) %ID/g
Lung radioactivity ([2]; 60 min after injection): 13.11 (3.05) %ID/g
Muscle radioactivity ([2]; 60 min after injection): 3.87 (0.80) %ID/g
Pancreas radioactivity ([2]; 60 min after injection): 8.04 (3.89) %ID/g
Small intestine radioactivity ([2]; 60 min after injection): 1.88 (0.29) %ID/g
Spleen radioactivity ([2]; 60 min after injection): 1.68 (0.81) %ID/g
Stomach radioactivity ([2]; 60 min after injection): 1.06 (0.17) %ID/organ
